Our source for the EC50 values is patent publication US8618153B2, “Hepatitis C virus inhibitors” (Bristol-Myers Squibb Company, priority 2009, dated 2013).

This assay has as its system HCV 1b genotype. Briefly: HCV Replicon assay (HCV-neo replicon cells), 1b genotype. Type of assay: cell-based. The conditions noted are these: Hepatitis C virus; HCV 1b genotype replicon; value given as range class; read-out: 1b EC50 (in μM or range). The method in brief:
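HCV-neo replicon cells, wild-type and carrying NS5A mutations, used to measure compound inhibition of replication; luciferase reporter replicon formats also applied.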
One may read the EC50 as the concentration at which the effect is half-maximal. In the case of `COC(=O)N[C@H](C(=O)N1CCC[C@H]1c1nc(C#Cc2ccc(C#Cc3c[nH]c([C@@H]4CCCN4C(=O)[C@@H](NC(=O)OC)[C@@H](C)OC)n3)cc2)c[nH]1)[C@@H](C)OC` [Example M5, Methyl ((1S,2R)-2-methoxy-1-(((2S)-2-(4-((4-((2-((2S)-1-(N-(methoxycarbonyl)-O-methyl-L-threonyl)-2-pyrrolidinyl)-1H-imidazol-4-yl)ethynyl)phenyl)ethynyl)-1H-imidazol-2-yl)-1-pyrrolidinyl)carbonyl)propyl)carbamate], the EC50 is less than 0.001 µM.
Take `COC(=O)N[C@@H](C)C(=O)N1CCC[C@H]1c1nc(C#Cc2ccc(C#Cc3c[nH]c([C@@H]4CCCN4C(=O)[C@H](C)NC(=O)OC)n3)cc2)c[nH]1` [Example M6, Methyl ((1S)-2-((2S)-2-(4-((4-((2-((2S)-1-(N-(methoxycarbonyl)-L-alanyl)-2-pyrrolidinyl)-1H-imidazol-4-yl)ethynyl)phenyl)ethynyl)-1H-imidazol-2-yl)-1-pyrrolidinyl)-1-methyl-2-oxoethyl)carbamate]: the EC50 fell in the range of 0.001 to 0.01 µM.
Regarding `COCC[C@H](NC(=O)OC)C(=O)N1CCC[C@H]1c1nc(C#Cc2ccc(C#Cc3c[nH]c([C@@H]4CCCN4C(=O)[C@H](CCOC)NC(=O)OC)n3)cc2)c[nH]1` [Example M7, Methyl ((1S)-3-methoxy-1-(((2S)-2-(4-((4-((2-((2S)-1-(N-(methoxycarbonyl)-O-methyl-L-homoseryl)-2-pyrrolidinyl)-1H-imidazol-4-yl)ethynyl)phenyl)ethynyl)-1H-imidazol-2-yl)-1-pyrrolidinyl)carbonyl)propyl)carbamate], the EC50 is less than 0.001 µM.
